The values that follow come from patent publication US9969744B2, “Compounds for use in cognition improvement” (FUNDACIÓN PARA LA INVESTIGACIÓN MÉDICA APLICADA, priority 2014, dated 2018).

One assay has as its system pCREB. The experiment in a line: In-vivo pCREB in hippocampus of wild type mice. The note with it: 1 h after single dose 40 mg/kg i.p. The method, then:
Another group of animals received the vehicle (1/1/8, v:v:v, DMSO/Tween 20/saline). One hour later, mice were sacrificed by cervical dislocation and their hippocampus was quickly dissected from the brains. Total tissue homogenates were obtained by homogenizing the hippocampus in a cold lysis buffer with protease inhibitors (0.2 M NaCl, 0.1 M HEPES, 10% glycerol, 200 mM NaF, 2 mM Na4P2O7, 5 mM EDTA, 1 mM EGTA, 2 mM DTT, 0.5 mM PMSF, 1 mM Na3VO4 and Complete Protease Inhibitor Cocktail, Roche Diagnostics). The homogenate was then centrifuged at 14,000×g at 4° C. for 20 min and the supernatant aliquoted and stored at −80° C. Total protein concentrations were determined using the BioRad Bradford protein assay (BioRad Laboratories). Protein samples were analyzed as described in the “in vitro” section.

Assay [1] deals with acetylated histone 3 at Lys9 (AcH3K9). The experiment in a line: HDAC activity using SHSY-5Y cell line (Western blot, histone 3 acetylation). The note with it: SHSY-5Y cells, 24 hours. In kind it is cell-based, human. The method, then:
HDAC inhibition leads to the corresponding functional response, increase in AcH3 level. Therefore, the cellular assay to conclude HDAC activity was assessed by Western blot analysis using specific antibodies against acetylated histone 3 at Lys9 (AcH3K9). Cell cultures were treated at 100 nM, 500 nM, 1 μM and/or 5 μM with compounds of the invention or known PDE inhibitors during 24 hours and, Table 1 (below) describes the functional activity: histone 3 acetylation level (AcH3) vs basal (no treatment).
A human neuroblastoma cell line (SHSY-5Y) was used. Cell line was obtained from ATCC (CRL-2266) and cultured in 35 mm plates (Becton Dickinson, NJ).
The cells were grown to 90% confluence at 37° C. in an atmosphere of 5% CO2 and in Dulbecco's modified Eagle's medium supplemented with Glutamax (Gibco, Invitrogen, CA), 100 units/ml penicillin/streptomycin, 1×MEM nonessential amino acids and 10% fetal bovine serum (Gibco, Invitrogen, CA).
Cells were collected and sonicated in a buffer containing a cold lysis buffer with protease inhibitors (0.2 M NaCl, 0.1 M HEPES (4-(2-hydroxyethyl)-1-piperazineethanesulfonic acid), 10% glycerol, 200 mM NaF, 2 mM Na4P2O7, 5 mM EDTA (ethylenediaminetetraacetic acid), 1 mM EGTA (ethylene glycol tetraacetic acid), 2 mM DTT (dithiothreitol), 0.5 mM PMSF (phenylmethylsulfonyl fluoride), 1 mM Na3VO4 and Complete Protease Inhibitor Cocktail, Roche Diagnostics), centrifuged at 14,000×g 4° C. for 20 min and the supernatant was aliquoted and stored at −80° C. Total protein concentrations were determined using the BioRad Bradford protein assay (BioRad Laboratories).
Protein samples were mixed with Laemmli sample buffer, resolved onto Sodium Dodecyl Sulfate (SDS)-polyacrylamide gels and transferred to nitrocellulose membrane. The membranes were blocked with 5% milk, 0.05% Tween-20 in PBS (Phosphate-Buffered Saline) or TBS (Tris-Buffered Saline) followed by overnight incubation with the following primary antibodies: rabbit polyclonal anti-acetylated Histone 3 (acetyl K9) (Cell Signalling Technology), rabbit polyclonal anti-total Histone 3 (Millipore), in the corresponding buffer. All the antibodies were used at 1:1000 dilution except the mouse monoclonal anti-β-actin which was used at 1:50.000. Following two washes in TBS/Tween20 and one wash in TBS alone, immunolabeled protein bands were detected by using HRP-conjugated anti-rabbit or anti-mouse antibody (Santa Cruz Biotechnology; dilution 1:5.000) following an enhanced chemiluminescence system (ECL, GE Healthcare Bioscience, Buckinghamshire, UK), and autoradiographic exposure to HyperfilmtECL (GE Healthcare Bioscience). Quantity One™ software v.4.6.3 (Bio-Rad) was used for quantification.

As to `CCCc1nn(C)c2c(=O)[nH]c(-c3cc(Cc4ccc(C(=O)Nc5ccccc5N)cc4)ccc3OCC)nc12` [Example 1-11, N-(2-aminophenyl)-4-[[4-ethoxy-3-(1-methyl-7-oxo-3-propyl-6H-pyrazolo[4,3-d]pyrimidin-5-yl)phenyl]methyl]benzamide], the “pCREB increment vs basal” value in the assay on pCREB is “+++ (basal x2≤(+++)<basal x3)”. In addition, the “AcH3: increment in Histone 3 acetylation level vs basal” value in assay [1] (compound concentration 100 nM) is “++ (basal x1.4≤(++)<basal x2)”; in assay [1] (compound concentration 500 nM), “++ (basal x1.4≤(++)<basal x2)”; in assay [1] (compound concentration 1 μM), “+++ (basal x2≤(+++)<basal x3)”.
